Values after ≈ are worked out from the molar mass of the structure shown.
Assays:
PC-3 = experiment: Antiproliferative activity against human PC-3 cells; type: functional, cell-based
K562 [1] = experiment: Antiproliferative activity against human K562 cells; type: functional, cell-based
A549 [2] = experiment: Antiproliferative activity against human A549 cells; type: functional, cell-based
[3] = target: T1, NAD-dependent protein deacetylase sirtuin-2 (Homo sapiens, UniProt Q8IXJ6); experiment: Inhibition of sirtuin 2 (unknown origin)
T1 sequence (Q8IXJ6 whole entry): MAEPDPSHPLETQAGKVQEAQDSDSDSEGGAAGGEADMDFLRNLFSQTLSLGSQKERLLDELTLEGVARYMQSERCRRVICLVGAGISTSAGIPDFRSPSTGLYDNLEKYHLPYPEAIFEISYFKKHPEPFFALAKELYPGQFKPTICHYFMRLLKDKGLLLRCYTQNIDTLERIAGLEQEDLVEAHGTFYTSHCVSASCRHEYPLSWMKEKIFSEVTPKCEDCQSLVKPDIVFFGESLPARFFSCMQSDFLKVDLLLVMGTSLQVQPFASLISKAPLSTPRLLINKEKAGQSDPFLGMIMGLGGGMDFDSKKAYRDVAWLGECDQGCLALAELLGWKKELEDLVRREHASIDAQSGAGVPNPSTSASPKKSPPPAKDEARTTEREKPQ

MCF7 [4] = experiment: Antiproliferative activity against human MCF7 cells by MTT reduction assay; type: functional, cell-based
K562 [5] = experiment: Antiproliferative activity against human K562 cells by MTT reduction assay; type: functional, cell-based
HeLa [6] = experiment: Anticancer activity against human HeLa cells by MTT assay; type: functional, cell-based
HepG2 [7] = experiment: cells; type: functional, cell-based; conditions: Homo sapiens
Description: Antiproliferative activity against human HepG2 cells

HCT-116 [8] = experiment: Antiproliferative activity against human HCT-116 cells; type: functional, cell-based
[9] = Antiproliferative activity against human U87 cells; type: functional, cell-based, U-87MG ATCC; conditions: U-87 MG
Pseudomonas aeruginosa [10] = experiment: Antibacterial activity against Pseudomonas aeruginosa ATCC 27853; type: functional
Pseudomonas aeruginosa [11] = experiment: Antibacterial activity against Pseudomonas aeruginosa No.010; type: functional
Pseudomonas aeruginosa [12] = experiment: Antibacterial activity against multidrug resistant Pseudomonas aeruginosa 025; type: functional
Pseudomonas aeruginosa [13] = experiment: Antibacterial activity against multidrug resistant Pseudomonas aeruginosa 034; type: functional
Ehrlich = experiment: Cytotoxicity against mouse EAC cells assessed as reduction in cell viability incubated for 2 hrs by trypan blue staining based microscopic analysis; type: functional
ECa-109 cell line = experiment: Antiproliferative activity against human EC109 cells; type: functional, cell-based
SMMC-7721 = experiment: Antiproliferative activity against human SMMC-7721 cells; type: functional, cell-based
MGC-803 = experiment: Antiproliferative activity against human MGC-803 cells; type: functional, cell-based
A549 [14] = experiment: Cytotoxicity against human A549 cells; type: functional, cell-based
MCF7 [15] = experiment: Cytotoxicity against human MCF7 cells; type: functional, cell-based
HeLa [16] = experiment: Cytotoxicity against human HeLa cells; type: functional, cell-based
HepG2 [17] = experiment: Anticancer activity against human HepG2 cells by MTT assay; type: functional, cell-based
MCF7 [18] = experiment: Anticancer activity against human MCF7 cells by MTT assay; type: functional, cell-based
HCT-116 [19] = experiment: Anticancer activity against human HCT-116 cells by MTT assay; type: functional, cell-based
HCT-116 [20] = experiment: Cytotoxicity against human HCT-116 cells; type: functional, cell-based
CCRF-CEM = experiment: Antiproliferative activity against human CCRF-CEM cells; type: functional, cell-based
SK-OV-3 = experiment: Antiproliferative activity against human SK-OV-3 cells; type: functional, cell-based

## Cc1noc([C@H]2[C@H](c3ccc(Cl)cc3Cl)CN(C)[C@]23C(=O)Nc2ccc(Cl)cc23)c1[N+](=O)[O-]
PC-3
  IC50: 13.1 µM
K562 [1]
  IC50: 10.7 µM
A549 [2]
  IC50: 21.5 µM

## CCOC(=O)C1=C(N)Oc2cc(C)oc(=O)c2C12C(=O)N(Cc1ccccc1)c1ccccc12 (stereo unspecified)
[3]
  IC50: 126 µM

## O=C1Nc2ccccc2[C@]12N1CSC[C@H]1[C@H](c1ccc(Br)cc1)[C@]21CCC/C(=C\c2ccc(Br)cc2)C1=O
MCF7 [4]
  IC50: 15.3 µM
K562 [5]
  IC50: 14.7 µM

## CCOC(=O)C1=C(N)Oc2c(c(=O)oc3cc(Cl)ccc23)C12C(=O)Nc1ccc(C)cc12 (stereo unspecified)
[3]
  IC50: 118 µM

## CN1C[C@@H](c2ccccc2Cl)[C@H](C(=O)c2c(O)c3ccccc3[nH]c2=O)[C@@]12C(=O)Nc1ccccc12
HeLa [6]
  IC50: 10.7 µM

## O=C(c1c[nH]c2ccccc12)[C@@H]1[C@@H](c2ccc(Cl)cc2Cl)[C@@H]2CSCN2[C@@]12C(=O)Nc1ccccc12
HepG2 [7]
  IC50: 7 µM
HCT-116 [8]
  IC50: 9 µM
PC-3
  IC50: 6 µM

## O=NN(CCCl)C(=O)NCCCl [CARMUSTINE]
[9]
  IC50: 3.9 µM

## CCn1cc(C(=O)O)c(=O)c2cc(F)c(N3CCNCC3)cc21 [NORFLOXACIN]
Pseudomonas aeruginosa [10]
  MIC: 2 µg/mL (≈ 6.26 µM)
Pseudomonas aeruginosa [11]
  MIC: 2 µg/mL (≈ 6.26 µM)
Pseudomonas aeruginosa [12]
  MIC: > 64 µg/mL
Pseudomonas aeruginosa [13]
  MIC: > 64 µg/mL

## O=c1[nH]cc(F)c(=O)[nH]1 [FLUOROURACIL]
MCF7 [4]
  IC50: 78.3 µM
Ehrlich
  ED25: 40 microg/cm3
ECa-109 cell line
  IC50: 10.6 µM
SMMC-7721
  IC50: 9.7 µM
MGC-803
  IC50: 7.6 µM

## CCOC(=O)C1=C(C(=O)OCC)C2(NC1CC(C)C)C(=O)Nc1ccccc12 (stereo unspecified)
A549 [14]
  IC50: 4.5 µM
MCF7 [15]
  IC50: 5 µM
HeLa [16]
  IC50: > 50 µM

## CN1C[C@H](c2ccc(Cl)cc2Cl)[C@@H](C(=O)c2cc3ccccc3[nH]2)C12C(=O)Nc1ccccc12 (stereo partly specified)
HepG2 [17]
  IC50: > 50 µM
MCF7 [18]
  IC50: 15 µM
HCT-116 [19]
  IC50: < 1 µM

## O=C(c1c(O)c2ccccc2[nH]c1=O)[C@@H]1[C@@H](c2ccccc2Cl)C(c2ccccc2)N[C@@]12C(=O)Nc1ccccc12 (stereo partly specified)
HCT-116 [20]
  IC50: 7.1 µM

## O=C1/C(=C/c2ccccc2)CNC[C@]12[C@@H](c1ccccc1)C1CCCN1[C@]21C(=O)Nc2ccccc21 (stereo partly specified)
CCRF-CEM
  IC50: 25.2 µM
SK-OV-3
  IC50: 38.9 µM

## O=C(c1c[nH]c2ccccc12)[C@@H]1[C@@H](c2ccc(C(F)(F)F)cc2)[C@@H]2CSCN2[C@@]12C(=O)Nc1ccccc12
HepG2 [7]
  IC50: 5.5 µM
HCT-116 [8]
  IC50: 7 µM
PC-3
  IC50: 6 µM

## CCOC(=O)C1=C(C(=O)OCC)C2(C(=O)Nc3ccccc32)N2CCCC12 (stereo unspecified)
A549 [14]
  IC50: 2 µM
MCF7 [15]
  IC50: 3.3 µM
HeLa [16]
  IC50: 8.3 µM

— ChEMBL document CHEMBL5226286, “The application of isatin-based multicomponent-reactions in the quest for new bioactive and druglike molecules” (Eur J Med Chem, 2021)
